Series [1] can be described thus: Solid-liquid equilibrium temperature. Conditions: Crystal, High pressure microscope.
For series [2] the following is noted: Crystal.

Drawing on the NIST ThermoML archive (doi:10.1021/acs.jced.5b00330), this text covers Solid-liquid equilibrium temperature and Normal melting temperature for four compounds.

Molecules are shown by their SMILES. Numbers after ± are expanded uncertainties.

Turning to `CCCCCCCCCCCCCCO` [1-tetradecanol], the Solid-liquid equilibrium temperature is reported as 310.6 ± 0.4 K in series [1] (100 kPa); 314.2 ± 0.5 K in series [1] (20000 kPa); 319 ± 0.5 K in series [1] (40000 kPa); 323.8 ± 0.5 K in series [1] (60000 kPa); 327.8 ± 0.5 K in series [1] (80000 kPa). The Normal melting temperature in series [2] (DTA) worked out at 37.8 ± 1.3 °C; in series [2] (High pressure microscope) it was 37.5 ± 1.4 °C.

Turning to `CCCCCCCCCCCCO` [dodecan-1-ol], the Solid-liquid equilibrium temperature was found to be 296.9 ± 0.4 K in series [1] (100 kPa); 300.5 ± 0.5 K in series [1] (20000 kPa); 304.6 ± 0.5 K in series [1] (40000 kPa); 308.4 ± 0.5 K in series [1] (60000 kPa); 311.7 ± 0.5 K in series [1] (80000 kPa). For the same compound, the Normal melting temperature in series [2] (DTA) came out at 24.7 ± 1.3 °C; in series [2] (High Pressure microscope) it was 23.8 ± 1.4 °C.

As for `CCCCCCCCCCCCCCCCCCO` [1-octadecanol], the Solid-liquid equilibrium temperature in series [1] (100 kPa) is reported as 330.9 ± 0.4 K; in series [1] (20000 kPa), 335.8 ± 0.5 K; in series [1] (40000 kPa) it was 340.9 ± 0.5 K; in series [1] (60000 kPa) it was 345.9 ± 0.5 K; in series [1] (80000 kPa), 350.6 ± 0.5 K. For the same compound, the Normal melting temperature in series [2] (DTA) was found to be 58.2 ± 1.3 °C; in series [2] (High Pressure microscope), 57.8 ± 1.4 °C.

For the compound `CCCCCCCCCCCCCCCCO` [1-hexadecanol], the Solid-liquid equilibrium temperature stood at 322.2 ± 0.4 K in series [1] (100 kPa); 327.3 ± 0.5 K in series [1] (20000 kPa); 332.4 ± 0.5 K in series [1] (40000 kPa); 337.6 ± 0.5 K in series [1] (60000 kPa); 342.7 ± 0.5 K in series [1] (80000 kPa). Further, the Normal melting temperature in series [2] (DTA) stood at 49.7 ± 1.3 °C; in series [2] (High pressure microscope), 49.1 ± 1.4 °C.
